Experimental data taken from patent US12673029B2, “Nanodelivery system based on globulin-1 S allele, preparation method therefor and use thereof” (Zhejiang Gongshang University, priority 2022, dated 2026).

Key:
Dendritic cells DC2.4 = assay: Biological activity assay in OVA-sensitized dendritic cells DC2.4 (qRT-PCR of pro-inflammatory cytokines); format: cell-based; settings: DC2.4 cells sensitized with OVA, cultured 24 hours
Procedure: Dendritic cells DC2.4 were sensitized by treatment with ovalbumin (OVA) and cultured for 24 hours with curcumin and wheat GSA protein-curcumin composite nanoparticles as experimental groups, respectively, and relevant experiments were conducted. Total RNA was extracted from the cells, and subjected to reverse transcription according to the instructions to obtain cDNA of relevant cells, and a quantitative reverse transcription polymerase chain reaction (qRT-PCR) was carried out by using a real-time fluorescence quantitative PCR system.

[1] = Light stability assay under UV irradiation (absorbance at 426 nm); format: physicochemical; settings: 30 W UV lamp
Procedure: 0.93 mg of curcumin and 14.96 mg of wheat GSA protein-curcumin composite nanoparticles were accurately weighed to be separately put in petri dishes, and were irradiated at a close range with a 30 W UV lamp, sampling was performed at 0 h, 1 h, 2 h, 3 h, 4 h, 5 h, and 6 h, the samples were separately dissolved with a […], a volume was made up to a constant volume of 250 mL, 10 mL of the prepared solution was taken, and an absorbance at 426 nm was measured, wherein the absorbance was measured for three times to take an average.

[2] = test system: wheat GSA protein (globulin-1 S allele); assay: Fluorescence quenching determination of the binding force of wheat GSA protein to curcumin; settings: for KSV (Stern-Volmer dynamic quenching constant): GSA 1 μM, curcumin 1-10 μM
Procedure: A wheat GSA protein solution and a curcumin solution were mixed in a certain ratio (1:1, 1:2, 1:5, 1:10) at different temperatures (298 K, 303 K, 310 K) for 2 hours. The final concentration of GSA was 1 μM, wherein the molecular weight of GSA was 56.16 KDa and the concentration of curcumin was 1 μM, 2 μM, 5 μM and 10 μM. The excitation spectrum was set at 280 nm, the emission spectrum was from 320 nm to 500 nm, and the recording temperature was 298 K, 303 K, and 310 K.
At an excitation wavelength of 280 nm, tryptophan and tyrosine residues will be excited. Binding of proteins and small molecules will lead to a decrease in fluorescence emission. As the concentration of curcumin increased, the fluorescence intensity decreased constantly and a slight red shift appeared.
Fluorescence quenching can be divided into dynamic quenching and static quenching. A dynamic quenching process can be distinguished by a Stern-Volmer equation: F0/F=1+KSV[Q]=1+Kqτ0[Q] (1)
wherein F0 and F are the GSA fluorescence intensity of the system in the absence and presence of curcumin, respectively; [Q] is the concentration of a quencher curcumin; and Kq is a fluorescence quenching rate constant.
Values for a static quenching mechanism, a binding constant and the number of binding sites can be obtained from a […] equation: log[(F0-F)/F]=log(Ka)+n log[Q] (2)
wherein Ka is a binding constant, [Q] is the concentration of curcumin, and n is the number of binding sites. A log-log plot of log[(F0−F)/F] versus log[Q] was made at 298 K, 303 K, and 310 K, respectively, according to the equation, as shown in FIG. 3. Ka and n at different temperatures were obtained from the intercept and slope.
To determine the action force between GSA and curcumin, the temperature-dependent thermodynamic parameters (ΔG, ΔH, and ΔS) were calculated using the following equations: -lnK==−ΔH/RT+ΔS/RΔG=ΔH−TΔS (3) • wherein R is a gas constant (8.314 J/mol*K), and T is the experimental temperature.

COc1cc(/C=C/C(=O)CC(=O)/C=C/c2ccc(O)c(OC)c2)ccc1O [curcumin, Curcumin]
alleviating effect on the allergic effect produced by OVA (pro-inflammatory cytokine mRNA such as IL-6) (Dendritic cells DC2.4): a certain alleviating effect | absorbance at 426 nm after UV irradiation ([1]; 2 h of UV irradiation): 0.606 | absorbance at 426 nm after UV irradiation ([1]; 5 h of UV irradiation): 0.252 | absorbance at 426 nm after UV irradiation ([1]; 6 h of UV irradiation): 0.214 | decrease of absorbance after UV irradiation ([1]; 6 h of UV irradiation): 75% | Kq (fluorescence quenching rate constant) ([2]; 298 K): 1.3981 10^13 L/mol*s | Ka value, order of magnitude ([2]; 298 K, 303 K, and 310 K, 120 min): ~10^6 | Ka (binding constant) ([2]; 298 K, 120 min): 8.5822 10^6 L/mol | KSV (Stern-Volmer dynamic quenching constant) ([2]; 298 K): 1.3981 10^5 L/mol | Kq (fluorescence quenching rate constant) ([2]; 303 K): 2.0211 10^13 L/mol*s | Ka (binding constant) ([2]; 303 K, 120 min): 15.7797 10^6 L/mol | KSV (Stern-Volmer dynamic quenching constant) ([2]; 303 K): 2.0211 10^5 L/mol | Kq (fluorescence quenching rate constant) ([2]; 310 K): 3.0636 10^13 L/mol*s | Ka (binding constant) ([2]; 310 K, 120 min): 16.9238 10^6 L/mol | KSV (Stern-Volmer dynamic quenching constant) ([2]; 310 K): 3.0636 10^5 L/mol
